# PMC11825922, “Molecular interactions, structural effects, and binding affinities between silver ions (Ag^+) and amyloid beta (Aβ) peptides” (Scientific Reports, 2025)
# Like-named read-outs stand apart in the source and are kept apart here.
# Tests used:
# Aβ peptides = details: cited from earlier work
# wt Aβ40 peptide = target: T1, wt Aβ40 peptide (Homo sapiens, UniProt P05067); assay: Tyr10 intrinsic fluorescence quenching titration with AgNO3, Morrison equation fit; format: binding; details: 20 mM MES buffer, 20 °C, read-out: Mean KD^App value
# T1 construct: Aβ(1–40) and Aβ(1–42), here abbreviated Aβ40 and Aβ42; purchased AlexoTech AB (Umeå, Sweden)
# Protocol: A Jobin Yvon Horiba Fluorolog 3 fluorescence spectrophotometer (Longjumeau, France) was used to record the fluorescence emission intensity at 305 nm (excitation wavelength 276 nm) for samples of 10 µM Aβ peptide in 20 mM MES buffer, using a quartz cuvette with 4 mm path length at 20 °C. Measurements were carried out at pH 7.2 for different Aβ variants, i.e. Aβ40, Aβ40(NoHis) mutant, Aβ40(H6A) mutant, and Aβ(4–40). For Aβ40, measurements were carried out also at pH 5.3, and at pH 7.2 in the presence of 50 mM SDS detergent. AgNO3 was titrated to the samples using stock solutions of 1 mM, 2 mM, and 10 mM. The measured tyrosine fluorescence intensities were plotted against the concentration of Ag^+ ions, and dissociation constants were evaluated by fitting the data curves to Eq. (1), i.e. the Morrison Equation [94]:1 I=I0+I∞-I0/2·Aβ·KD+Ag+Aβ-KD+Ag+Aβ^2-4·Ag·Aβ
# Here, I0 is the initial fluorescence intensity with no added Ag^+ ions, I∞ is the steady-state intensity at the end of the titration, [Ag] is the concentration of added Ag^+ ions, KD is the dissociation constant, and [Aβ] is the concentration of Aβ peptide. […] Adding a linear term for the fluorescence quenching effect of free Ag^+ ions was considered unnecessary. […]
# It is previously known that Ag^+ ions can quench the intrinsic fluorescence of amino acids such as tyrosines, including the Tyr10 residue in Aβ peptides. […]
# Aβ40 peptide = target: T2, Aβ40 peptide (Homo sapiens, UniProt P05067); assay: CD spectroscopy on Aβ secondary structure; details: 10 µM Aβ40, 20 mM phosphate buffer pH 7.3, 16–256 µM AgNO3, 20 °C
# T2 construct: Aβ(1–40) and Aβ(1–42), here abbreviated Aβ40 and Aβ42; purchased AlexoTech AB (Umeå, Sweden)
# Protocol: Circular dichroism (CD) spectroscopy was performed with a Chirascan CD instrument (Applied Photophysics Ltd., U.K.) using a quartz cuvette with 2 mm pathlength containing 600 µL of 10 µM Aβ40 peptide in 20 mM phosphate buffer, pH 7.3. CD spectra were recorded at 20 °C between 190 and 260 nm, with 0.5 nm step size. One sample contained only Aβ40 in buffer, while another sample contained also 50 mM SDS detergent, in order to mimic a membrane environment. To both samples, AgNO3 was added in steps of 16 µM, 56 µM, and 256 µM. The Chirascan Pro-Data v.4.4.1 software (Applied Photophysics Ltd., U.K.) was used to process the recorded spectra with an eight points smoothing filter (Savitzky-Golay).
# Figure 3 CD spectra of 10 μM Aβ40 peptide in 20 mM phosphate buffer, pH 7.3. AgNO3 was titrated to the peptide, either in (A): buffer only, or (B): with 50 mM SDS present. Black: Aβ40 in buffer. Orange: + 50 mM SDS (in B only). Red: + 16 µM AgNO3. Green: + 56 µM AgNO3. Blue: + 256 µM AgNO3.
# Aβ42 oligomers [1] = target: T3, Aβ42 oligomers (Homo sapiens, UniProt P05067); assay: BN-PAGE analysis of SDS-stabilized Aβ42 oligomers; details: 10, 100, 500 µM AgNO3, 100–120 µM Aβ42, 0.2% SDS, 37 °C 24 h
# T3 construct: Synthetic lyophilized wildtype (wt) Aβ(1–42) peptide, abbreviated Aβ42; purchased JPT Peptide Technologies GmbH (Germany); host or cells: chemical synthesis
# Protocol: (§1) The Aβ42 monomers were then used to prepare SDS-stabilized Aβ42 oligomers of approximately tetrameric size, using a previously published protocol[83] with the following modifications: the oligomers were prepared in D2O, at four-fold lower peptide concentration, and without the original dilution step[85]. The reaction mixture (100–120 μM Aβ42 in D2O-based PBS, containing 0.2% (6.9 mM) SDS) was incubated at 37 °C for 24 h together with either 0, 10, 100, or 500 µM AgNO3, respectively, and then flash-frozen in liquid N2 and stored at –20 °C for later analysis.
# Homogeneous solutions of SDS-stabilized Aβ42 oligomers, prepared as described in Section “Preparation of Aβ42 oligomers” with either 0, 10, 100, or 500 µM silver nitrate, were analyzed with BN-PAGE using the Invitrogen system (ThermoFisher Scientific, USA). For this purpose, 4–16% Bis–Tris Novex gels (ThermoFisher Scientific, USA) were loaded with 10 μL of samples containing either Aβ42 monomers or Aβ42 oligomers with increasing concentrations of silver, calibrated against the Amersham High Molecular Weight calibration kit for native electrophoresis (GE Healthcare, USA). The gel was first run at 4 °C for 90 min and then stained with the Pierce Silver Staining kit according to the manufacturer’s instructions (ThermoFisher Scientific, USA). […]
# Aβ40 peptide fibrils = target: T4, Aβ40 peptide fibrils (Homo sapiens, UniProt P05067); assay: AFM imaging of Aβ40 aggregates after 72 h incubation; details: 30 µM AgNO3, 10 µM Aβ40, 72 h, 37 °C, 5 mM MES pH 7.3
# T4 construct: Aβ(1–40) and Aβ(1–42), here abbreviated Aβ40 and Aβ42; purchased AlexoTech AB (Umeå, Sweden)
# Protocol: Samples for AFM imaging were produced by incubating 10 µM Aβ40 peptides in 5 mM MES buffer, pH 7.3, for 72 h at 37 °C with continuous shaking at 350 rpm together with different amounts of AgNO3, i.e. 0 µM; 2.5 µM; 5 µM; and 30 µM (corresponding to Ag^+:Aβ ratios of 0:1; 1:4; 1:2; and 3:1, respectively). The incubated samples were placed as 1 µL droplets on fresh silicon wafers (Siegert Wafer GmbH, Germany). After 2 min, 10 µL of Milli-Q water was added to the droplets, and then a lint-free wipe was used to remove all excess fluid. Next, the wafers were left to air-dry in a container, covered to protect from dust, and later the same day AFM images were recorded. A neaSNOM AFM unit (Neaspec GmbH, Germany) was used, running in tapping mode (Ω: 280 kHz, tapping amplitude 50–55 nm) and equipped with Pt/Ir-coated monolithic ARROW-NCPt Si tips (NanoAndMore GmbH, Germany) where the tip radius was less than 10 nm. Both topographic and mechanical phase images were recorded for 2.5 × 2.5 µm scanning areas (pixel size 200 × 200) with a scan speed of 2.5 ms/pixel. The images were minimally processed to perform basic plane levelling using the Gwyddion software.
# Figure 4 AFM images for 10 µM Aβ40 peptides together with different concentrations of AgNO3, incubated with agitation for 72 h at 37 °C in 5 mM MES buffer, pH 7.3. (A) 0 µM AgNO3; (B) 2.5 µM AgNO3; (C) 5 µM AgNO3; (D) 30 µM AgNO3. […]
# Aβ42 oligomers [2] = target: T3, Aβ42 oligomers; assay: FTIR spectroscopy of SDS-stabilized Aβ42 oligomers; details: 0–500 µM AgNO3; FTIR with BN-PAGE
# Protocol: as §1
# Fourier-transform infrared (FTIR) spectra of SDS-stabilized Aβ42 oligomers (prepared as described in Section “Preparation of Aβ42 oligomers” with 0–500 µM AgNO3) were recorded in transmission mode on a Tensor 37 FTIR spectrometer (Bruker Optik GmbH., Germany) equipped with a […] and a liquid nitrogen-cooled MCT detector. The unit was continuously purged with dry air during the measurements. […] The sample shuttle allowed sample and reference spectra to be recorded without opening the chamber. FTIR spectra were recorded at room temperature in the 1900–800 cm^–1 range, using 6 mm aperture, 2 cm^–1 resolution, a zero-filling factor of two, and 300 scans for both background and sample spectra. […] All spectra were analyzed and plotted using the OPUS 5.5 software. Second derivatives were calculated with a 17 cm^–1 smoothing factor. […]
# T3 sequence (P05067 672-713 limits assumed): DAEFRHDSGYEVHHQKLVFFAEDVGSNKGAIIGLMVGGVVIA
# T1 sequence (P05067 672-711 limits assumed): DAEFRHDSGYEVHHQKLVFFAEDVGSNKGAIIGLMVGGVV
# T2 sequence (P05067 672-711 limits assumed): as above
# T4 sequence (P05067 672-711 limits assumed): as above
compound,measurement,setting,value
[Cu+2] [Cu^2+],Binding affinity,Aβ peptides,sub-micromolar
same,Kd,"Aβ peptides; fluorescence measurements, read-out: Binding affinity for the Aβ·Cu^2+ complex, corrected for buffer effects",~1 nM
[Ni+2] [Ni^2+],Kd,Aβ peptides; read-out: Binding affinity,1000 to 50000 nM
[Zn+2] [Zn^2+],Kd,Aβ peptides; read-out: Binding affinity,1000 to 50000 nM
monovalent silver ions (Ag^+),Kd,wt Aβ40 peptide; Aβ40 pH 7.2 + 50 mM SDS,25 µM
same,Kd,"wt Aβ40 peptide; Aβ40 pH 7.2, 10 µM peptide",25 µM
same,Effect on Aβ40 secondary structure (CD),Aβ40 peptide,slightly increased β-sheet structure
same,"Average sizes, amounts and size distributions of Aβ42 oligomers versus without silver",Aβ42 oligomers [1],approximately the same
same,Effect on Aβ40 fibril morphology (AFM),Aβ40 peptide fibrils,much more tangled together
same,"Effect on size, secondary structure, β-sheet planarity and number of strands of Aβ42 oligomers",Aβ42 oligomers [2],no significant effect
